Patent publication US5908868A, “Retinol derivatives useful for enhancing immune response” (priority 1995, dated 1999)
One block for each compound: values may come before it.

Assays:
[1] = test system: B lymphocytes; assay: B cell growth/survival; type: cell-based; settings: on a concentration basis
[2] = Stability (half-life) in serum-free tissue culture; type: in vitro ADME
[3] = test system: fibroblasts; assay: Expression of immediate early genes; type: cell-based; settings: unpublished work
[4] = Reversion to retinol; type: in vitro ADME
[5] = test system: ERLD; assay: Retinol metabolism; type: in vitro ADME
Experimental: (§1) FBS. The FBS was preincubated at room temperature with 14.4 uCi [^3 H
(§2) retinol (NEN) for 4 h. The cell pellet was washed twice with PBS. The
(§3) retinoid were extracted according to MClean et al. 90 and separated on an
(§4) analytical c18 reverse phase column according to FIG. 7. The DPM wer
(§5) determined using an online scintillation counter.

[6] = test system: RPMI; assay: Retinol metabolism; type: in vitro ADME; settings: RPMI leukemia (ALL)
Experimental: as §1, §2, §3, §4, §5

[7] = test system: SK3886; assay: Retinol metabolism; type: in vitro ADME
Experimental: as §1, §2, §3, §4, §5

[8] = test system: SK-N-SH; assay: Retinol metabolism; type: in vitro ADME, human
Experimental: as §1, §2, §3, §4, §5

[9] = test system: Hela; assay: Retinol metabolism; type: in vitro ADME, human
Experimental: as §1, §2, §3, §4, §5

[10] = test system: 5/2; assay: Retinol metabolism; type: in vitro ADME, human
Experimental: as §1, §2, §3, §4, §5

[11] = test system: Raji (4°); assay: Retinol metabolism; type: in vitro ADME, human
Experimental: as §1, §2, §3, §4, §5

[12] = test system: Ket; assay: Retinol metabolism; type: in vitro ADME, human
Experimental: as §1, §2, §3, §4, §5

[13] = test system: Raji (37°); assay: Retinol metabolism; type: in vitro ADME, human
Experimental: as §1, §2, §3, §4, §5

[14] = test system: N-tera2; assay: Retinol metabolism; type: in vitro ADME, human
Experimental: as §1, §2, §3, §4, §5

[15] = test system: SKL3; assay: Retinol metabolism; type: in vitro ADME, human
Experimental: as §1, §2, §3, §4, §5

[16] = test system: thymocytes; assay: Proliferation of Con A activated thymocytes in serum-free medium; type: cell-based, BALB/c mouse; settings: Con A 0.5 μg/ml, retinol 3×10^-6 M, ITLB
Experimental: Purified thymocytes (5×10^5 cells/well) were stimulated by TCR crosslinking with immobilized anti-CD3e antibody (FIG. 15A) or 0.4 μg/ml Con A (FIG. 15B) in serum-free ITLB medium. The indicated amounts of retinoids were added either once at the beginning of the experiment (marked as "1x") or every 12 hours thereafter (marked as "6x"). DNA synthesis was measured after 72 hours by tritiated thymidine uptake as described.
Thymuses of 3 to 6-week-old BALB/c mice were teased in serum-free RPMI medium supplemented with 1% BSA, 10^-6 M linoleic acid and antibiotics. […] Cell viability was evaluated by trypan blue dye exclusion. To determine the extent of depletion of accessory cells, samples were stained with FITC-conjugated anti-Fc receptor antibody and analyzed by flow cytometry on a FACScan instrument (Becton Dickinson). No FcR-bearing cells were detected by this procedure.
Cells were cultured in serum-free medium, referred to as ITLB, containing RPMI 1640 supplemented with 8×10^-7 M insulin (5 μg/ml), 7×10^-8 M transferrin (5 μg/ml), 2×10^-6 M linoleic acid, 2×10^-6 M delipidated BSA (0.12 mg/ml), 2 mM L-glutamine, 1 mM sodium pyruvate and antibiotics. […] The optimal concentration for stimulation of T cells was determined for each batch of anti-CD3 mAb and Con A. The optimal range of Con A was particularly narrow in serum-free medium (0.5-0.2 μg/ml) and varied with the cell density used. […]

- lability relative to retinal [2]: much more labile molecule than retinal
- reversion to retinol [4]: does not revert to retinol
SMILES: CC(C=CC=C(C)C(O)CO)=CC=C1C(C)=CCCC1(C)C (stereo not drawn) [14HRR, 14-hydroxy-4,14-retro-retinol]
- activity relative to all-trans retinol in B cells [1]: 10-30 fold more active
- expression of immediate early genes [3]: facilitates the expression of immediate early genes in fibroblasts

- Total cts. [5]: 2.8 × 10^5 cts.
- Ester (% of taken up retinol) ([5]; overnight): 20%
- P3 (% of taken up retinol) ([5]; overnight): 9%
- Retinol (% of taken up retinol) ([5]; overnight): 63%
- Total cts. [6]: 1.2 × 10^5 cts.
- Ester (% of taken up retinol) ([6]; overnight): 38%
- P3 (% of taken up retinol) ([6]; overnight): 2%
- Retinol (% of taken up retinol) ([6]; overnight): 58%
- Total cts. ([7]; SK3886): 4.7 × 10^5 cts.
- Ester (% of taken up retinol) ([7]; SK3886, overnight): 2%
- P3 (% of taken up retinol) ([7]; SK3886, overnight): 3%
- Retinol (% of taken up retinol) ([7]; SK3886, overnight): 92%
- Total cts. [8]: 2.0 × 10^5 cts.
- Ester (% of taken up retinol) ([8]; overnight): 25%
- P3 (% of taken up retinol) ([8]; overnight): 0.9%
- Total cts. [9]: 1.0 × 10^5 cts.
- Ester (% of taken up retinol) ([9]; overnight): 20%
- P3 (% of taken up retinol) ([9]; overnight): 3%
- Retinol (% of taken up retinol) ([9]; overnight): 71%
- Total cts. ([10]; 5/2): 5.7 × 10^5 cts.
- Ester (% of taken up retinol) ([10]; 5/2, overnight): 24%
- P3 (% of taken up retinol) ([10]; 5/2, overnight): 4%
- Retinol (% of taken up retinol) ([10]; 5/2, overnight): 67%
- Total cts. ([11]; 2.5 × 10^6 cells): 2.5 × 10^5 cts.
- Ester (% of taken up retinol) ([11]; overnight): 0%
- P3 (% of taken up retinol) ([11]; overnight): 0%
- Retinol (% of taken up retinol) ([11]; overnight): 99%
- Total cts. [12]: 4.6 × 10^5 cts.
- Ester (% of taken up retinol) ([12]; overnight): 41%
- P3 (% of taken up retinol) ([12]; overnight): 3%
- Retinol (% of taken up retinol) ([12]; overnight): 52%
- Total cts. ([13]; 2.5 × 10^6 cells): 4.0 × 10^5 cts.
- Ester (% of taken up retinol) ([13]; overnight): 14%
- P3 (% of taken up retinol) ([13]; overnight): 3%
- Retinol (% of taken up retinol) ([13]; overnight): 79%
- Total cts. ([14]; N-tera2): 13.5 × 10^5 cts.
- Ester (% of taken up retinol) ([14]; N-tera2, overnight): 97%
- P3 (% of taken up retinol) ([14]; N-tera2, overnight): 0.4%
- Retinol (% of taken up retinol) ([14]; N-tera2, overnight): 0.7%
- Total cts. ([15]; SKL3): 1.6 × 10^5 cts.
- Ester (% of taken up retinol) ([15]; SKL3, overnight): 24%
- P3 (% of taken up retinol) ([15]; SKL3, overnight): 2%
- Retinol (% of taken up retinol) ([15]; SKL3, overnight): 71%
SMILES: CC1=C(/C=C/C(C)=C/C=C/C(C)=C/CO)C(C)(C)CCC1 [retinol, all-trans retinol]
- thymocyte proliferation [16]: growing exponentially
